The values that follow come from US8445473B2, “Heteroaryl-substituted bicyclic Smac mimetics and the uses thereof” (The Regents of the University of Michigan, priority 2008, dated 2013).

The term IC50 denotes the concentration needed to halve the response being measured. Higher therefore signals weaker potency. One may read the AUC(0-inf) as the area under the concentration-time curve extrapolated to infinity. A higher AUC(0-inf) goes with high exposure. One may read the Cmax as the maximum level reached in the sampled fluid or tissue. A word on the Tmax: it is the time at which the peak concentration occurs. The half-life is how long it takes for the measured level to halve. The term Kd denotes the equilibrium constant for the complex coming apart.

The target in data set [1] is T1, cIAP1 BIR3 domain (residues 253-363) (Homo sapiens, UniProt Q13490).
T1 construct: The recombinant cIAP1 BIR3 domain (residues 253-363); His-tag
T1 sequence (Q13490 253-363): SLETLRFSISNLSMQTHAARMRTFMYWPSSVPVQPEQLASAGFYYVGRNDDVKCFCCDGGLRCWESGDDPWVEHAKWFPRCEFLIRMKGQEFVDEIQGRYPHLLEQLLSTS
The data set can be described thus: Fluorescence polarization competitive binding assay to cIAP1 BIR3. Conditions: FP competitive binding, SM5F or SM-F1 as the tracer. The procedure:
(§1) In order to test the binding ability of conformationally constrained Smac mimetics to other IAP proteins (cIAP1 and cIAP2) binding assay conditions were developed. The recombinant cIAP1 BIR3 domain (residues 253-363), cIAP2 BIR3 domain (residues 238-349), fused to a His-tag, were used in the binding assays. Competitive binding assays for other IAP proteins are performed similarly as that described for XIAP BIR3.
(§2) In competitive binding experiments using SM5F as the tracer to cIAP-1 BIR3 protein, the tested compound was incubated with cIAP-1 BIR3 protein (10 nM) and SM5F (2 nM) in the assay buffer. In competitive binding experiments using SM5F as the tracer to cIAP-2 BIR3 protein, the tested compound was incubated with cIAP-2 BIR3 protein (25 nM) and SM5F (2 nM) in the assay buffer. All other procedures for cIAP-1 BIR3 and cIAP-2 BIR3 proteins were the same as those used for XIAP BIR3 protein competitive assays.
(§3) In competitive binding experiments using SM-F1 as the tracer to cIAP-1 BIR3 protein, the tested compound was incubated with cIAP-1 BIR3 protein (3 nM) and SM-F1 (1 nM) in the assay buffer. In competitive binding experiments using SM-F1 as the tracer to cIAP-2 BIR3 protein, the tested compound was incubated with cIAP-2 BIR3 protein (5 nM) and SM-F1 (1 nM) in the assay buffer.
(In general: Fluorescence polarisation rises when a labelled molecule tumbles more slowly, as on binding a larger partner.)

The target in data set [2] is T2, cIAP2 BIR3 domain (residues 238-349) (Homo sapiens, UniProt Q13489).
T2 construct: cIAP2 BIR3 domain (residues 238-349); His-tag
T2 sequence (Q13489 238-349): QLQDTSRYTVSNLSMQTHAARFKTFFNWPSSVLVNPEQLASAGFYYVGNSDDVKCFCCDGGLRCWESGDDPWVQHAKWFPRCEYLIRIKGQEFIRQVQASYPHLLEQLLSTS
The data set can be described thus: Fluorescence polarization competitive binding assay to cIAP2 BIR3. As to conditions: FP competitive binding, SM5F or SM-F1 as the tracer. The method, then:
as §1, §2, §3

For data set [3], the target named is T3, XIAP BIR3 protein (Homo sapiens, UniProt P98170). The data set can be described thus: Fluorescence polarization competitive binding assay to XIAP BIR3. Conditions: FP competitive binding, SM5F or SM-F1 as the tracer.
T3 sequence (P98170 241-356 limits assumed): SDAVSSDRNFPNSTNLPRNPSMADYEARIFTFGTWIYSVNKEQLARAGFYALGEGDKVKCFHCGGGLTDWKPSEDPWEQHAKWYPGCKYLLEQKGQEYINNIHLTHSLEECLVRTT
Text: A sensitive and quantitative in vitro binding assay using the fluorescence polarization (FP) based method was used to determine the binding affinity of Smac mimetics to XIAP protein (Nikolovska-Coleska et al., Anal. Biochem. 332:261-73 (2004)). For this assay, 5-carboxyfluorescein (5-Fam) was coupled to the lysine side chain of the mutated Smac peptide, AbuRPF-K-(5-Fam)-NH2 (termed SM5F). Another fluorescently tagged Smac mimetic (termed SM-F1) with higher affinities than SM5F was also used.
(§4) In competitive binding experiments using SM5F as the tracer to XIAP BIR3 protein, the tested compound was incubated with XIAP BIR3 protein (30 nM) and SM5F (5 nM) in the assay buffer (100 mM potassium phosphate, pH 7.5; 100 μg/ml bovine gamma globulin; 0.02% sodium azide, Invitrogen). Dose-dependent competitive binding FP experiments were carried out with serial dilutions of tested compounds. For each assay, the bound peptide control containing recombinant XIAP BIR3 protein and SM5F (equivalent to 0% inhibition) and free peptide control containing only free SM5F (equivalent to 100% inhibition) will be included. The polarization values were measured after 3 hrs of incubation when the binding reached equilibrium using an ULTRA READER (Tecan U.S. Inc., Research Triangle Park, N.C.). IC50 values, the inhibitor concentration at which 50% of bound peptide is displaced, will be determined from a plot using nonlinear least-squares analysis. Curve fitting will be performed using GRAPHPAD PRISM software (GraphPad Software, Inc., San Diego, Calif.).
as §4, with “using SM-F1” for “using SM5F”, “protein (10” for “protein (30”, “and SM-1F (2” for “and SM5F (5”, “and SM-1F” for “and SM5F”, “free SM-1F” for “free SM5F”
Negative controls containing protein/tracer complex only (equivalent to 0% inhibition), and positive controls containing only free tracers (equivalent to 100% inhibition), were included in each assay plate. FP values were measured as described above. IC50 values were determined by nonlinear regression fitting of the competition curves. The Ki values of competitive inhibitors were calculated using the equation described before (Nikolovska-Coleska et al., Anal. Biochem. 332:261-73 (2004)), based upon the measured IC50 values, the Kd values of the tracer to different proteins, and the concentrations of the proteins and tracers in the competitive assays. Ki values were also calculated using a commonly used equation known in the literature (Huang, X. J. Biomol. Screen. 8:34-38 (2003)).

The test system of data set [4] is SK-OV-3 ovarian cancer cell line. Put plainly: Cell growth inhibition, WST-8 assay. The format is cell-based. Conditions: Homo sapiens, SK-OV-3, 96 h, 4 days. The method, then:
(§5) The effect of the compounds of the present invention on the growth of various cancer cell lines was tested. Cells were seeded in 96-well flat bottom cell culture plates at a density of 3000 cells/well with a tested compound and incubated at 37° C. in an atmosphere of 95% air and 5% CO2 for 4 days. The rate of cell growth inhibition after treatment with different concentrations of the compound was determined using a WST-8 kit (2-(2-methoxy-4-nitrophenyl)-3-(4-nitrophenyl)-5-(2, 4 disulfophenyl)-2H-tetrazolium monosodium salt; Dojindo Molecular Technologies, Inc., Gaithersburg, Md.). WST-8 was added at a final concentration of 10% to each well, and then the plates were incubated at 37° C. for 2-3 hrs. The absorbance of the samples was measured at 450 nm using a ULTRA Tecan Reader (Molecular Device). The concentration of the tested compound that inhibited cell growth by 50% (IC50) was calculated by comparing absorbance in untreated cells and the cells treated with the tested compound.

The subject of data set [5] is MDA-MB-231 human breast cancer cell line. The data set can be described thus: Cell growth inhibition, WST-8 assay. The format is cell-based. Conditions: MDA-MB-231, 96 h, 4 days. The procedure: as §5
On the technique in general: Tetrazolium assays rely on reduction of a dye to a coloured formazan, in cell work by metabolically active cells.

Data set [6] in a line: Pharmacokinetics in rats following oral administration. Conditions: rat, in vivo, male Sprague-Dawley rats, 25 mg/kg, mean±SD; for AUC(0-inf) / Cmax / Tmax: n=3; for half-life: n=3, read-out: half-life (T½) (converted).
In another data set the target is T4, recombinant cIAP-1 BIR3 (Homo sapiens, UniProt Q13490).
T4 construct: The recombinant cIAP1 BIR3 domain (residues 253-363); His-tag
T4 sequence (Q13490 253-363): as the sequence (Q13490 253-363) above
As to conditions: tracer SM5F; Peng et al. 2008; cited from earlier work.

The next data set deals with T5, recombinant cIAP-2 BIR3 (Homo sapiens, UniProt Q13489).
T5 construct: cIAP2 BIR3 domain (residues 238-349); His-tag
T5 sequence (Q13489 238-349): as the sequence (Q13489 238-349) above
Conditions: tracer SM5F; Peng et al. 2008; cited from earlier work.

Data set [7] concerns the target T3, XIAP BIR3 protein. Conditions: tracer SM5F; Nikolovska-Coleska et al. 2004; cited from earlier work.
The target of another data set is XIAP BIR3. Conditions: background statement; cited from earlier work.

T3 sequence (P98170 241-356 limits assumed): as the sequence (P98170 241-356 limits assumed) above

On to `CN[C@@H](C)C(=O)N[C@H]1CN(C(=O)CC(C)C)CC[C@H]2CC[C@@H](c3nc(-c4ccccc4)cs3)N2C1=O` [SM-1235], for which the IC50 is less than 1000 nM in [1]; less than 1000 nM in data set [2]; less than 200 nM on XIAP BIR3 protein [3]; less than 3000 nM in data set [4]; less than 3000 nM in data set [5].

Regarding `CN[C@@H](C)C(=O)N[C@H]1CCCC[C@H]2CC[C@@H](c3nc4c(-c5ccccc5)cccc4[nH]3)N2C1=O` [SM-1237], the IC50 in [1] is less than 100 nM; in [2] it was less than 100 nM; on XIAP BIR3 protein [3] it was less than 200 nM; in data set [4], less than 3000 nM; in data set [5] it was less than 3000 nM.

As for `CN[C@@H](C)C(=O)N[C@H]1CN(C(=O)Cc2ccc(F)cc2)CC[C@H]2CC[C@@H](c3nc4c(-c5ccccc5)cccc4[nH]3)N2C1=O` [SM-1268], the IC50 in data set [1] was less than 100 nM; in data set [2] it was less than 100 nM; at XIAP BIR3 protein [3], less than 500 nM; in data set [4] it was less than 3000 nM; in [5] it was less than 3000 nM. In data set [6], this molecule had an AUC(0-inf) of 6490 ± 965 ng·h/mL. This molecule also displayed a Cmax in data set [6] of 612 ± 16 ng/mL. In addition, the Tmax in data set [6] turned out to be 2 h. For the same molecule, the half-life in data set [6] was 4.2 ± 1 h.

As for `CN[C@@H](C)C(=O)N[C@H]1CCCC[C@H]2CC[C@@H](c3nc(-c4ccccc4)cs3)N2C1=O` [SM-1229], the IC50 in data set [1] is less than 2000 nM; in [2], less than 2000 nM; at XIAP BIR3 protein [3] it was less than 5000 nM; in data set [4], less than 100000 nM; in data set [5] it was less than 100000 nM.

For `CN[C@@H](C)C(=O)N[C@H]1CN(C(=O)Cc2ccc(F)cc2)CC[C@H]2CC[C@@H](c3nc4c(-c5ccccc5F)cccc4[nH]3)N2C1=O` [SM-1308], the IC50 in data set [1] was less than 100 nM; in data set [2], less than 100 nM; at XIAP BIR3 protein [3] it was less than 500 nM; in data set [4] it was less than 3000 nM; in data set [5] it was less than 3000 nM.

For the molecule `CN[C@@H](C)C(=O)N[C@H]1CN(C(=O)Cc2ccccc2)CC[C@H]2CC[C@@H](c3nc4c(-c5ccccc5)cccc4[nH]3)N2C1=O` [SM-1257], the IC50 in [1] is less than 100 nM; in data set [2], less than 100 nM; at XIAP BIR3 protein [3], less than 500 nM; in data set [4] it was less than 3000 nM; in [5], less than 3000 nM.

In the case of AbuRPF-K-(5-Fam)-NH2 [SM5F], the Kd was 4.1 nM on recombinant cIAP-1 BIR3, 6.6 nM on recombinant cIAP-2 BIR3 and 17.9 nM on XIAP BIR3 protein [7].

For the molecule `CN[C@@H](C)C(=O)N[C@H]1CN(C(=O)CCc2ccc(F)cc2)CC[C@H]2CC[C@@H](c3nc4c(-c5ccccc5)cccc4[nH]3)N2C1=O` [SM-1271], the IC50 was less than 100 nM in data set [1]; less than 100 nM in data set [2]; less than 500 nM on XIAP BIR3 protein [3]; less than 3000 nM in [4]; less than 3000 nM in data set [5].

As to `CN[C@@H](C)C(=O)N[C@H]1CN(C(=O)CCc2ccccc2)CC[C@H]2CC[C@@H](c3nc4c(-c5ccccc5)cccc4[nH]3)N2C1=O` [SM-1270], the IC50 was less than 100 nM in [1]; less than 100 nM in data set [2]; less than 500 nM at XIAP BIR3 protein [3]; less than 3000 nM in data set [4]; less than 3000 nM in data set [5].

For the molecule `CN[C@@H](C)C(=O)N[C@H]1CN(C(=O)Cc2ccccc2)CC[C@H]2CC[C@@H](c3nc4c(-c5ccc(F)cc5)cccc4[nH]3)N2C1=O` [SM-1317], the IC50 in data set [1] is less than 100 nM; in data set [2], less than 100 nM; on XIAP BIR3 protein [3], less than 500 nM; in [4], less than 3000 nM; in data set [5] it was less than 3000 nM.

As for `CN[C@@H](C)C(=O)N[C@H]1CN(C(=O)Cc2ccc(F)cc2)CC[C@H]2CC[C@@H](c3nc4c(-c5cccc(F)c5)cccc4[nH]3)N2C1=O` [SM-1306], the concentration for half-maximal inhibition (IC50) in data set [1] was less than 100 nM; in data set [2] it was less than 100 nM; at XIAP BIR3 protein [3] it was less than 5000 nM; in data set [4] it was less than 3000 nM; in [5], less than 3000 nM.

On to `CN[C@@H](C)C(=O)N[C@H]1CN(C(=O)CC(C)C)CC[C@H]2CC[C@@H](c3nc4c(-c5ccc(F)cc5)cccc4[nH]3)N2C1=O` [SM-1316], for which the IC50 was less than 100 nM in [1]; less than 100 nM in data set [2]; less than 500 nM on XIAP BIR3 protein [3]; less than 3000 nM in data set [4]; less than 3000 nM in [5]. In addition, in data set [6], the AUC(0-inf) was determined as 14300 ± 1970 ng·h/mL. The same molecule came in with a Cmax in data set [6] of 1530 ± 275 ng/mL. In data set [6], the Tmax was determined as 2 h. The half-life in data set [6] is 6.7 ± 1.2 h.

For `CN[C@@H](C)C(=O)N[C@H]1CN(C(=O)Cc2ccc(F)cc2)CC[C@H]2CC[C@@H](c3nc4c(-c5ccc(F)cc5)cccc4[nH]3)N2C1=O` [SM-1307], the IC50 in data set [1] is less than 100 nM; in data set [2] it was less than 100 nM; at XIAP BIR3 protein [3] it was less than 500 nM; in [4] it was less than 3000 nM; in data set [5], less than 3000 nM.

B1: mature Smac protein: mature Smac/DIABLO protein, endogenous inhibitor of XIAP (protein, UniProt Q9NR28 22-239, looked up)
Diablo IAP-binding …: LCVPVVANFKKRCFSELIRPWHKTVTIGFGVTLCAVPIAQKSEPHSLSSEALMRRAVSLVTDSTSTFLSQTTYALIEAITEYTKAVYTLTSLYRQYTSLLGKMNSEEEDEVWQVIIGARAEMTSKHQEYLKLETTWMTAVGLSEMAAEAAYQTGADQASITARNHIQLVKLQVEEVHQLSRKAETKLAEAQIEELRQKTQEEGEERAESEQEAYLRED
With B1, on XIAP BIR3, the Kd is 420 nM.
